One compound from US7858609B2, “Solid ganaxolone formulations and methods for the making and use thereof” (Marinus Pharmaceuticals, priority 2005, dated 2010) can be followed below.

A value given as a limit tells only on which side of the number the result lay.

This series in a line: Solubility of ganaxolone using water soluble beta cyclodextrins. It counts as physicochemical. As to conditions: using water soluble beta cyclodextrins (beta-sulfobutyl-cyclodextrin, 2-hydroxypropylbetacyclodextrin). An excerpt: Ganaxolone formulations suitable for intramuscular, subcutaneous, or intravenous injection may comprise physiologically acceptable sterile aqueous or non-aqueous solutions, dispersions, suspensions or emulsions, and sterile powders for reconstitution into sterile injectable solutions or dispersions. Examples of suitable aqueous and non-aqueous carriers, diluents, solvents, or vehicles including water, ethanol, polyols (propylene glycol, polyethylene-glycol, glycerol, cremophor and the like), suitable mixtures thereof, vegetable oils (such as olive oil) and injectable organic esters such as ethyl oleate. Additionally, Ganaxolone can be dissolved at concentrations of >1 mg/ml using water soluble beta cyclodextrins (e.g. beta-sulfobutyl-cyclodextrin and 2-hydroxypropylbetacyclodextrin. Proper fluidity can be maintained, for example, by the use of a coating such as lecithin, by the maintenance of the required particle size in the case of dispersions, and by the use of surfactants. Ganaxolone formulations suitable for subcutaneous injection may also contain additives such as preserving, wetting, emulsifying, and dispensing agents. Prevention of the growth of microorganisms can be ensured by various antibacterial and antifungal agents, such as parabens, benzoic acid, benzyl alcohol, chlorobutanol, phenol, sorbic acid, and the like. […]

In turn, `CC(=O)[C@H]1CC[C@H]2[C@@H]3CC[C@H]4C[C@](C)(O)CC[C@]4(C)[C@H]3CC[C@]12C` [Ganaxolone, 3α-hydroxy-3β-methyl-5α-pregnan-20-one] yielded a dissolved concentration above 1 mg/mL.
